From US8435744B2 (priority 2005, dated 2013)

Target: PrP^C from uninfected N2a58 cells (Mus musculus, UniProt P04925)
Type: cell-based, murine
Settings: normal N2a58 cells, 3 days, 5 to 20 μM, before and after PK, FIG. 5

Chain of PrP^C from uninfected N2a58 cells (P04925 23-230 limits assumed): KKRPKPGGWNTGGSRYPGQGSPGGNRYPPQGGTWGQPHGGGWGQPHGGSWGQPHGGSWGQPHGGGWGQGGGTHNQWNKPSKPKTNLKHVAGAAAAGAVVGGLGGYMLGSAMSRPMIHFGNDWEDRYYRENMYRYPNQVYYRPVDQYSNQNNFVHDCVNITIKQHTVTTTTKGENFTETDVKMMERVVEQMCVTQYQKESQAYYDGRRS

CSc1nccc(-c2ccc(Br)s2)n1 [compound A, 4-(5-bromo-2-thienyl)-2-(methylthio)pyrimidine]
oligomeric forms of normal PrP or bands resistant to proteinase K digestion: does not make it possible to demonstrate oligomeric forms of the normal prion protein, PrP nor the appearance of bands resistant to proteinase K digestion
